Measurements published in patent publication US10968214B2, “KRas G12C inhibitors” (Eli Lilly and Company, priority 2018, dated 2021).
Like-named read-outs stand apart in the source and are kept apart here.

Legend:
[1] = biological target: T1, constitutive RAS GTPAse activity in H358 cells (Homo sapiens, UniProt P01116, G12C); experiment: H358 Cellular Active RAS GTPase ELISA; format: cell-based; details: 2 hr
T1 construct: host or cells: H358 human lung cancer cells
Description: This assay is used to measure the ability of test compounds to inhibit constitutive RAS GTPAse activity in human lung cancer cells H358 (ATCC CRL-5807). The RAS GTPase ELISA kit (Active Motif Cat #52097) contains a 96-well plate pre-coated with glutathione in order to capture a kit-supplied GST-Raf-RBD protein. Activated RAS (GTP-bound) in cell extracts specifically bind to the Raf-RBD. Bound RAS is detected with a primary antibody that recognizes human KRas. A secondary antibody conjugated with HRP recognizes the primary antibody and a development solution provides a chemiluminescent readout.
H358 cells are plated at 80,000 cells/well in 90 μL serum free media (RPMI 1640, GIBCO) and incubated overnight at 37° C./5% CO2. The next morning, 10 μL of serially-diluted (3-fold) test compounds (500 μM top concentration) and 10 μL of controls (Maximum signal wells: 5% DMSO and Minimum signal wells: 500 μM LSN3429410 as an inhibitor) are added to the cell plate and incubated for 2 hr at 37° C./5% CO2. Complete Lysis/Binding Buffer is prepared containing Protease Inhibitor cocktail and GST-Raf-RBD and stored on ice. One hour before cell plate incubation is completed, 50 μL of GST-Raf-RBD is diluted in lysis/binding buffer, and buffer is added to the ELISA assay plate and which is incubated for 1 hour at 4° C. with gently rocking. After 2 hr, the cells are washed with 100 μL ice-cold PBS and lysed with 100 μL lysis/binding buffer. The cell plate is shaken for 10 min at RT. The cell plate is then centrifuged at 1500 rpm for 10 min at RT. During this time, 1× Wash Buffer is prepared at RT and then is used to wash (3×100 μL) the GST-Raf-RBD coated assay plate. After washing, 50 μL of cell lysate is added to the GST-Raf-RBD coated assay plate and incubated for 1 hour at RT with gentle shaking. During this incubation period, 1× Antibody Binding Buffer is prepared and brought to RT. The assay plate is washed 3×100 μL with 1× Wash Buffer and then 50 μL of Primary Antibody (diluted 1:500 in 1× Antibody Binding buffer) is added. The plate is incubated for 1 hour at RT. The assay plate is washed 3×100 μl with 1× Wash Buffer and then 50 μL of Secondary Antibody (diluted 1:5000 in 1× Antibody Binding buffer) is added and incubated for 1 hour at RT. The assay plate is washed 4×100 μL with 1× Wash buffer and then 50 μL of chemiluminescent working solution is added at RT. The assay plate is then read on an EnVision™ Plate Reader (Perkin Elmer) using a luminescence program.
The signal is converted to percent inhibition using the following equation: % Inhibition=100−[(Test Compound Signal−Median Minimum Signal)/(Median Maximum Signal−Median Minimum Signal)×100]. The Maximum signal is a control well without inhibitor.

[2] = system: A549; experiment: CellTiterGlo Cell Proliferation Assay, A549; format: cell-based; details: KRas G12S, lung, 96 hr; for IC50: Homo sapiens
Protocol: (§1) A panel of tumor cell lines harboring KRas G12C or other KRas mutations are collected (Table 6). All cell lines are from ATCC or other sources indicated.
(§2) Typically cells are cultured in RPMI1640 or Dulbecco's modified Eagle's medium (DMEM, GIBCO) supplemented with 10% FBS (GIBCO, Invitrogen). For 2D culture cells (4×10^3/well) maintained in growth medium described above, are plated onto 96 well tissue culture plates Corning® Cat. 3603) a day before the treatment. For 3D culture 8000 cells/well are seeded onto 96 well ultra-low attachment tissue culture plates (Corning, #3474). The cells are treated compound for 96 hr, and then are analyzed for viability using the CellTiterGlo® Luminescent Cell Viability Assay® (Promega #G7572 for 2D and Promega #G9683 for 3D cultures) according to manufacturer's instructions and an EnVision™ plate reader. Nonlinear regression and sigmoidal dose-response curves are used to calculate the half maximal inhibitory concentration (IC50) with GraphPad Prism 4® software.

[3] = system: LXFA-983L; experiment: CellTiterGlo Cell Proliferation Assay, LXFA-983L; format: cell-based; details: KRas G12C, Lung, 96 hr
Protocol: as §1, §2

[4] = system: KYSE-410 xenograft; experiment: Anti-tumor growth activity, KYSE-410 esophageal xenograft; format: in vivo; details: 28 Day, negative = regression
[5] = system: UM-UC-3; experiment: CellTiterGlo Cell Proliferation Assay, UM-UC-3; format: cell-based; details: Homo sapiens, UMUC3, KRas G12C, Bladder, 96 hr
Protocol: as §1, §2

[6] = system: A427; experiment: CellTiterGlo Cell Proliferation Assay, A427; format: cell-based; details: Homo sapiens, A-427, KRas G12D, lung, 96 hr
Protocol: as §1, §2

[7] = read-out: IC50 (μM) in 2 D cell proliferation
[8] = read-out: IC50 (μM) in 3 D spheroid cell proliferation

T1 sequence (P01116 1-188 isoform P01116-2 G12C): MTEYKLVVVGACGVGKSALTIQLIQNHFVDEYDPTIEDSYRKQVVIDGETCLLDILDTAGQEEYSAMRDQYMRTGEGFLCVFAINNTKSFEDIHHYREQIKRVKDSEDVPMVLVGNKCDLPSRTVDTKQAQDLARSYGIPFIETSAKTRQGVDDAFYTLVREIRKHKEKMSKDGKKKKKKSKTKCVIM

IC50 ([1]; read-out: RAS-GTP): 0.0371 µM
IC50 ([1]; read-out: relative IC50): 0.037 µM
IC50 [2, 7]: 17.7 µM
IC50 [2, 8]: 5.94 µM
IC50 (μM) in 2 D cell proliferation [2]: little activity
IC50 (μM) in 3 D spheroid cell proliferation [2]: little activity
Structure (SMILES): C=CC(=O)N1CCN(c2ncnc3c(F)c(-c4ccc(F)c5sc(N)nc45)c(Cl)cc23)CC1 [Example 1, 1-{4-[7-(2-Amino-7-fluoro-1,3-benzothiazol-4-yl)-6-chloro-8-fluoroquinazolin-4-yl]piperazin-1-yl}prop-2-en-1-one]
IC50 [3, 7]: 1.34 µM
IC50 [3, 8]: 0.05 µM
Tumor Growth Inhibition (%) or Regression (−%) ([4]; 15 mg/kg BID): 21.2%
Tumor Growth Inhibition (%) or Regression (−%) ([4]; 30 mg/kg BID): −9%
Tumor Growth Inhibition (%) or Regression (−%) ([4]; 30 mg/kg QD): 74.5%
IC50 [5, 7]: 0.124 µM
IC50 [5, 8]: 0.075 µM
IC50 [6, 7]: 10.1 µM
IC50 [6, 8]: 18.6 µM
